According to ChEMBL document CHEMBL1201862, “PubChem BioAssay data set” (2004):
Calls of active or inactive are those of the source.

Columns and labels:
Coagulation factor XII = biological target: T1, Coagulation factor XII (Homo sapiens, UniProt P00748); format: functional;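 further: activated factor XIIa alpha cleaving a fluorogenic AMC peptide substrate; inhibitor potency from loss of enzyme activity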
T1 sequence (P00748 whole entry): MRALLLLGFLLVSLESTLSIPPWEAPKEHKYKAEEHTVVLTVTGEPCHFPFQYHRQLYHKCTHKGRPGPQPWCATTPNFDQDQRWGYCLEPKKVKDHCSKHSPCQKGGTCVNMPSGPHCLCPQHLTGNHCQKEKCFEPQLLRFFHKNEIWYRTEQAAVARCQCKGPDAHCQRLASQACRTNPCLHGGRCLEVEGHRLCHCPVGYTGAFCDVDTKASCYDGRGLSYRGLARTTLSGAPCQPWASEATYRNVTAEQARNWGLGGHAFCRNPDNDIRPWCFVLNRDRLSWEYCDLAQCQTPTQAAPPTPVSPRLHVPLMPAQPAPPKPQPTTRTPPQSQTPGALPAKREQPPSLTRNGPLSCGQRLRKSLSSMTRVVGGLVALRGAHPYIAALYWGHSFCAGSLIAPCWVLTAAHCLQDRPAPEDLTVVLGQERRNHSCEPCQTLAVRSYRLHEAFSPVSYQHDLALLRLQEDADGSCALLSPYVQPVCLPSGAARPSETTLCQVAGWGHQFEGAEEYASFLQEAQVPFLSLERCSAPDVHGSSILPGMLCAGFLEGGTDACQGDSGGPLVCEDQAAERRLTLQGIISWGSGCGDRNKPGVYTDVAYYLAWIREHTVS

HeLa = test: ATP-based viability loss in HeLa cells – cell-based, CellTiter-Glo luminescence, cherry-pick samples, cytotoxicity control for MITF activator project, dose response (AID 540259); format: functional; conditions: Homo sapiens
Cytochrome P450 3A4 [1] = biological target: T2, Cytochrome P450 3A4 (Homo sapiens, UniProt P08684);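 further: CYP3A4 tested as one member of a cytochrome P450 panel screen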
Cytochrome P450 3A4 [2] = biological target: T2, Cytochrome P450 3A4; remark: listed apart in the source
[3] = biological target: T3, Long-chain-fatty-acid--AMP ligase FadD28 (Mycobacterium tuberculosis, UniProt P9WQ59); test: Fluorescence polarization aasay to screen for inhibitors that compete for the binding of FadD28 to a bisubstrate Measured in Biochemical System Using Plate Reader - 2147-01_Inhibitor_Dose_CherryPick_Activity.; format: functional, Mycobacterium tuberculosis H37Rv
T3 sequence (P9WQ59 whole entry): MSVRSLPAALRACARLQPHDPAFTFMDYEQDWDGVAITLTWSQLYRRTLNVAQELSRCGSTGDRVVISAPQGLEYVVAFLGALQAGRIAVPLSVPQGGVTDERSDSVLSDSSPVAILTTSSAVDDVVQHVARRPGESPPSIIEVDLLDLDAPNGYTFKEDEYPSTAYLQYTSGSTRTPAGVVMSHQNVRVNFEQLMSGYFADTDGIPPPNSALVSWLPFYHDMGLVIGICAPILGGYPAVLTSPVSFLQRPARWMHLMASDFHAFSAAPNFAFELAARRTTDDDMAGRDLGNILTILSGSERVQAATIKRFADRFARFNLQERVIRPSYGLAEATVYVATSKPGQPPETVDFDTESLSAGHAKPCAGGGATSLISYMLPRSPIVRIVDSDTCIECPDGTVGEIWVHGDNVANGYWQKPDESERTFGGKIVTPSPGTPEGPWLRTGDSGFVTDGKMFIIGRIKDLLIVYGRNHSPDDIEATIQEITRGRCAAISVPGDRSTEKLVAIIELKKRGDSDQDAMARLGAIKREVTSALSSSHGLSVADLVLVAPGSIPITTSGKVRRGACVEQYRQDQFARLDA

[4] = alpha-synuclein stem-loop luciferase translation blockers – H4 neuroglioma cells, luminescence, confirmation (AID 1988); format: functional, cell-based
[5] = Luminescence Cell-Based Dose Response HTS to Identify Inhibitors of 5'UTR Stem-Loop Driven Prion Protein mRNA Translation in H4 Neuroglioblastoma Cells. [Related pubchem assays: 1827 (Project Summary), 1813 (Primary HTS)]; format: functional
BJ [6] = test: growth inhibition of engineered Ras-driven BJ cells – cell-based, alamar blue fluorescence, cherrypicked samples, dose response (AID 2631); format: functional; conditions: Homo sapiens;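 further: confirmatory dose-response assay in RAS-dependent BJ fibroblasts engineered with TERT, LT and ST, with cytotoxicity read by fluorescence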
BJ [7] = test: cells; format: functional, cell-based; conditions: Homo sapiens
BJ [8] = test: BJ-TERT fibroblast viability loss – cell-based, RAS-independent, luminescence, dose response (AID 1933); format: functional; conditions: Homo sapiens
[9] = DRD fibroblast viability loss – cell-based, non-viral oncogenic, luminescence, dose response (AID 1934); format: functional; conditions: Homo sapiens
BJ [10] = test: BJ-TERT-LT-ST fibroblast viability loss – cell-based, RAS-independent, luminescence, dose response (AID 1935); format: functional; conditions: Homo sapiens;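 further: BJ fibroblasts immortalized with TERT plus LT and ST oncogenes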
[11] = luciferase reporter signal suppression in cells – H4 neuroglioma cells, luminescence, dose response (AID 1990); format: functional, cell-based
[12] = biological target: T4, Endoribonuclease toxin MazF (Escherichia coli K-12, UniProt P0AE70); test: activation of MazEF endoribonuclease cleavage – biochemical, fluorescence, single-stranded RNA substrate, uHTS hits, dose response (AID 588481); format: functional
T4 sequence (P0AE70 whole entry): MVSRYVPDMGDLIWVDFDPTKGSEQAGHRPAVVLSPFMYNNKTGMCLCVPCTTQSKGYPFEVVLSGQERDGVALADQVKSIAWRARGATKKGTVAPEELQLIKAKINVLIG

[13] = biological target: T4, Endoribonuclease toxin MazF; test: substrate-only fluorescence increase artefacts – biochemical, single-stranded RNase substrate, counter-screen for MazEF activator project, dose response (AID 588502); format: functional
[14] = biological target: Heat shock protein HSP 90-alpha (Homo sapiens, UniProt P07900); format: functional, organism-based
[15] = biological target: Ras and Rab interactor 1/Tyrosine-protein kinase ABL1 (Homo sapiens, UniProt P00519+Q13671); format: functional;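 further: biochemical TR-FRET dose-response test measuring inhibition of binding between Rin1 and Abl proteins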
[16] = fluconazole-exposed Candida albicans growth modulators – fluorescence, retest, confirmation (AID 2467); format: functional, cell-based
[17] = NIH-3T3 fibroblast cytotoxicity, dose response, cytotoxicity control, cell-based, fluorescence, Alamar Blue, secondary assay (AID 2327); format: functional;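 further: NIH-3T3 mouse fibroblasts cultured with fluconazole at 8 µg/mL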
[18] = Luminescence Cell-Based Dose Response HTS to Identify Activators of Luciferase Translation or Activity in H4 […] Cells. [Related pubchem assays: 1829 (Project Summary), 1814 (Primary HTS)]; format: functional
H4 = test: Luminescence Cell-Based Dose Response HTS to Identify Activators of 5'UTR Stem-Loop Driven Prion Protein mRNA Translation in H4 Neuroglioblastoma Cells. [Related pubchem assays: 1829 (Project Summary), 1814 (Primary HTS)]; format: functional; conditions: Homo sapiens

T2 sequence (P08684 whole entry): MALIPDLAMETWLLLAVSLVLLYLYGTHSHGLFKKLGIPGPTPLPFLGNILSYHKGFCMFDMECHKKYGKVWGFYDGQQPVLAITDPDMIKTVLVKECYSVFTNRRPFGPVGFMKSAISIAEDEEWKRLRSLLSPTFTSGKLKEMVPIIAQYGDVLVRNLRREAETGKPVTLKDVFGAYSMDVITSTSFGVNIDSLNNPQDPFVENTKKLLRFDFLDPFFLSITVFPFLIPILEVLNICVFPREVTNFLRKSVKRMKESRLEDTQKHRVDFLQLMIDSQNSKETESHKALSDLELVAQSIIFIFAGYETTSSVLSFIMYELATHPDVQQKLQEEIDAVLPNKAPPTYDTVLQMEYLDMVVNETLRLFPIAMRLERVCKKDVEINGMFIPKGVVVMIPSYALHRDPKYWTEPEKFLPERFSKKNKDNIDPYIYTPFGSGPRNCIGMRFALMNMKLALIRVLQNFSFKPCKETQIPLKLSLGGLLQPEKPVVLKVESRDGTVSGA
Ras and Rab interactor 1/Tyrosine-protein kinase ABL1, sequence (P00519 whole entry): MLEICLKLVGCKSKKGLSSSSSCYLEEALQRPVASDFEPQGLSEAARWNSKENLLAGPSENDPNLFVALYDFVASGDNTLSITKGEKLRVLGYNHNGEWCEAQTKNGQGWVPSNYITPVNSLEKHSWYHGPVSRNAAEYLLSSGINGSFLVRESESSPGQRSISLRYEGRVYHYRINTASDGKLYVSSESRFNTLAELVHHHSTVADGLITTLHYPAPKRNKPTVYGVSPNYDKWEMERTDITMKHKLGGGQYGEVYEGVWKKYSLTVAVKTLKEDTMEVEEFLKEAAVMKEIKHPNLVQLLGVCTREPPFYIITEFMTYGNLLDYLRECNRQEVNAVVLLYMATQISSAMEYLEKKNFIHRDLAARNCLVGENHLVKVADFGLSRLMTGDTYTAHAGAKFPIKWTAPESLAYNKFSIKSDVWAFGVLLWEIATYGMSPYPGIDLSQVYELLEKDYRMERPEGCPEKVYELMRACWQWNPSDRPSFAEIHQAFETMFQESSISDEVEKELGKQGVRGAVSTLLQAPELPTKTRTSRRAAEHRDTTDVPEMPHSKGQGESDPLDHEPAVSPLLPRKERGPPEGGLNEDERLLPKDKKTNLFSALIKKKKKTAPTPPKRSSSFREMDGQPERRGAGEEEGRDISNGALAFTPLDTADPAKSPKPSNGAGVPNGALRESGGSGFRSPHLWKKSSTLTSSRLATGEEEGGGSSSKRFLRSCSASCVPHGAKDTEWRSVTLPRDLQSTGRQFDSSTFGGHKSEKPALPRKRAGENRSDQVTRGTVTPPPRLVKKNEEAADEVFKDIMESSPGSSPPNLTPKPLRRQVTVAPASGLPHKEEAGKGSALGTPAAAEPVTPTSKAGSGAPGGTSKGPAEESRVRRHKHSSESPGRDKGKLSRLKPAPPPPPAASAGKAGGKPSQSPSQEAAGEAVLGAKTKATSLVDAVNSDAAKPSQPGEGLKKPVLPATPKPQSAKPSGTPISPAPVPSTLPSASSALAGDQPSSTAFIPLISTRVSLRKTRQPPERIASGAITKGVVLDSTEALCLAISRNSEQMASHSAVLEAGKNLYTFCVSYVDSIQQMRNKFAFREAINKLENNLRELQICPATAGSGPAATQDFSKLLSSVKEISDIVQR
Ras and Rab interactor 1/Tyrosine-protein kinase ABL1, sequence (Q13671 whole entry): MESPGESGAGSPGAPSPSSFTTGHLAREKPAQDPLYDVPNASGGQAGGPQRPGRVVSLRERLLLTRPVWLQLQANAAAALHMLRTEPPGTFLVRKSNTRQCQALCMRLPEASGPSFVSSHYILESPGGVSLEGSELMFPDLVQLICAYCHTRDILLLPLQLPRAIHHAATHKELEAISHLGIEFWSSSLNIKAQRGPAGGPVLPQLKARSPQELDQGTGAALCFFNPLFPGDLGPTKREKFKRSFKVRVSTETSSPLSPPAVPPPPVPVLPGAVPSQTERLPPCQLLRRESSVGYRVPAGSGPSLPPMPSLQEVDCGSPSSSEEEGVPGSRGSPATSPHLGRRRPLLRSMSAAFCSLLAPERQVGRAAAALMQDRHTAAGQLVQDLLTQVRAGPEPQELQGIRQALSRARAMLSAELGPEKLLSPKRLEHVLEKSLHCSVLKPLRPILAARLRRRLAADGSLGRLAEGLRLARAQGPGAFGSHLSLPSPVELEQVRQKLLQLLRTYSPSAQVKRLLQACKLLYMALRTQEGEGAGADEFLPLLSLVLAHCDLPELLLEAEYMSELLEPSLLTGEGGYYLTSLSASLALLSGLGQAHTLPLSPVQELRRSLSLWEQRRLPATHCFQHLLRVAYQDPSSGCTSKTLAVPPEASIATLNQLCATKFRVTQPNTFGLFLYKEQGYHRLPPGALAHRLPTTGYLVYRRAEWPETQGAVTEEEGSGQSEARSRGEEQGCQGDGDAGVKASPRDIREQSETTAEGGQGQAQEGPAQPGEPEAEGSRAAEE

Cc1onc(-c2c(F)cccc2Cl)c1-c1nnc(-c2ccc(C(F)(F)F)cc2)o1
IC50 (Coagulation factor XII): > 50 µM (inactive)

CC1CCCC(C)N1C(=O)c1cc(-c2ccc3c(c2)OCO3)on1 (stereo not drawn)
AC50 (HeLa): > 350 µM (inactive)

Nc1ccccc1C#Cc1ccccc1
AC50 (Cytochrome P450 3A4 [1]): 15.8 µM (inconclusive)
AC50 (Cytochrome P450 3A4 [2]): 15.8 µM (inconclusive)
AC50 (HeLa): > 350 µM (inactive)

COc1ccc(C2CC(=O)Oc3c(C(C)C)ccc(C)c32)cc1 (stereo not drawn)
AC50 [3]: > 100 µM (inactive)

COc1ccc(S(=O)(=O)N2CCOCC2)cc1NC(=O)CCNC(=O)c1ccc(Br)cc1
EC50 [4]: 1.09 µM (active)
EC50 [5]: 5.78 µM (active)
EC50 (BJ [6]): 6.09 µM (active)
EC50 (BJ [7]): 2.84 µM (inconclusive)
EC50 (BJ [8]): > 150 µM (not active)
EC50 [9]: > 150 µM (not active)
EC50 (BJ [10]): 2.02 µM (active)
EC50 [11]: 10.6 µM (active)

N#C/C(=C\c1ccc([N+](=O)[O-])cc1)c1nc(C2CC2)cs1
EC50 [12]: 10.4 µM (active)
EC50 [13]: > 99 µM (inactive)

COc1ccc2c(c1)OC[C@H]1[C@H]2N2C(=O)c3cc(Cl)ccc3NC(=O)[C@@]2(C)[C@H]1c1ccccc1
AC50 [14]: 0.976 µM (active)

O=C(Cc1ccc(NC(=O)C2CCN(C(=O)C3CCCC3)CC2)cc1)Nc1ccc(C(=O)N2CCOCC2)cc1
IC50 [15]: 1.54 µM (active)

O=C(N/N=C/c1ccc(O)c([N+](=O)[O-])c1)C1CC1(c1ccccc1)c1ccccc1 (stereo not drawn)
AC50 [3]: 22.2 µM (active)
EC50 [16]: 1.04 µM (active)
EC50 [17]: > 160 µM (inactive)

COc1ccc(C(=O)N/N=C\c2coc3ccc(C)cc3c2=O)cc1
EC50 [12]: > 99 µM (inactive)
EC50 [13]: > 99 µM (inactive)

CSc1nccc(N/N=C/c2ccccc2)n1
EC50 [18]: 0.32 µM (active)
AC50 (HeLa): 100 µM (active)
EC50 (H4): 2.55 µM (active)

CCOC(=O)c1c(/N=C/C2C(=O)NC(=O)NC2=O)sc2c1CCC2
EC50 [12]: > 99 µM (inactive)
EC50 [13]: > 99 µM (inactive)
